In series [1] the test system is HCT-116 colorectal carcinoma cells. Nature of the series: In vitro antiproliferative activity, MTS proliferation assay. Format: cell-based. As to conditions: Homo sapiens, 72 h. For orientation: Formazan colour is commonly taken as a measure of viable cells.
Series [2] concerns K-562 chronic myeloid leukemia cells. Described as above. Format: cell-based. The note with it: Homo sapiens, K562, 72 h.
In series [3] the test system is LN-229 glioblastoma cells. Described as above. Format: cell-based. As to conditions: Homo sapiens, 72 h.
Series [4] relates to NCI-H460 lung carcinoma cells. Described as above. Format: cell-based. The note with it: Homo sapiens, 72 h.
Series [5] deals with Capan-1 pancreatic adenocarcinoma cells. The description is as above. Format: cell-based. The note with it: Homo sapiens, 72 h. An outline of the steps:
(§1)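 Cells grown in media with 10% FBS were incubated 72 h with compounds, then viability was read with MTS reagent. Compounds were tested in two independent experiments.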

The subject of series [6] is DND-41 acute lymphoblastic leukemia cells. The description is as above. Format: cell-based. The note with it: Homo sapiens, DND41, 72 h. An outline of the steps:
as §1

Series [7] concerns HL-60 acute myeloid leukemia cells. The series is described as above. As to conditions: Homo sapiens, 72 h. Format: cell-based. An outline of the steps:
as §1

Series [8] concerns Z-138 non-Hodgkin lymphoma cells. The series is described as above. Format: cell-based, human. An outline of the steps:
(§2)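 MTT lines (SW620, PC3, HeLa): 1 × 10^4–3 × 10^4 cells/mL, 10^−8–10^−4 M in 10-fold steps, 72 h, A570, IC50 from OD, quadruplicate, n≥2. Z-138: MTS after 72 h, A490, IC50, two independent runs.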

Series [9] has as its system HeLa cervical carcinoma cells. Nature of the series: In vitro antiproliferative activity, MTT assay. Format: cell-based. The note with it: Homo sapiens, 72 h. An outline of the steps: as §2
Series [10] has as its system PC3 prostate carcinoma cells. Nature of the series: In vitro antiproliferative activity, MTT assay. The note with it: Homo sapiens, 72 h. Format: cell-based. An outline of the steps:
as §2

The subject of series [11] is SW620 colon carcinoma cells. Put plainly: In vitro antiproliferative activity, MTT assay. Format: cell-based. As to conditions: Homo sapiens, SW-620, 72 h. An outline of the steps: as §2
In a further series the test system is E. coli ATCC 25922. Put plainly: Antibacterial activity in vitro, broth microdilution. As to conditions: Escherichia coli, ATCC25922; broth microdilution (CLSI), 16–24 h at 37 °C. Format: cell-based. An outline of the steps:
(§3)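 CLSI broth microdilution in Ca-adjusted MH media; inoculum from direct colony suspension at 0.5 McFarland, further diluted 100×.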
In general terms: In broth dilution the organism is exposed to a series of concentrations in liquid medium.

For the next series, the system named is S. Pneumoniae ATCC 49619. The series is described as above. Format: cell-based. As to conditions: Streptococcus pneumoniae, ATCC49619; broth microdilution (CLSI), 16–24 h at 37 °C. An outline of the steps: as §3
The test system of another series is S. aureus ATCC 29213. The series is described as above. Format: cell-based. As to conditions: Staphylococcus aureus, ATCC29213; broth microdilution (CLSI), 16–24 h at 37 °C. An outline of the steps:
as §3

For a further series, the system named is E. coli Efflux Del. Put plainly: microbe, parasite or virus in culture. The note with it: Escherichia coli, read-out: MIC E. coli Efflux Del. Format: cell-based. An outline of the steps: as §3
The subject of another series is HCoV 229E. Put plainly: Antiviral CPE reduction assay. Format: cell-based. As to conditions: Human coronavirus 229E, HEL 299 cells.
For the next series, the system named is HCoV OC43. Put plainly: Antiviral CPE reduction assay. Format: cell-based, human coronavirus OC43. As to conditions: Betacoronavirus 1, OC43, HEL 299 cells.
For the next series, the system named is HCoV NL63. Put plainly: Antiviral CPE reduction assay. Format: cell-based. The note with it: Human coronavirus NL63, Huh-7, Huh7 cells.
Series [12] has as its system Influenza H1N1 (A/Ned/378/05). Nature of the series: Antiviral CPE reduction assay. Format: cell-based. As to conditions: Influenza A virus, MDCK cells.
Series [13] concerns Influenza H3N2 (A/HK/7/87). Nature of the series: Antiviral CPE reduction assay. The note with it: Influenza A virus, MDCK cells. Format: cell-based.
The subject of series [14] is Influenza B (B/Ned/537/05). Nature of the series: Antiviral CPE reduction assay. As to conditions: Influenza B virus, MDCK cells. Format: cell-based.
The test system of another series is RSV A Long. Nature of the series: Antiviral CPE reduction assay. As to conditions: human respiratory syncytial virus; CPE reduction, HEL 299 cells. Format: cell-based, respiratory syncytial virus A.
The test system of a further series is HSV-1 KOS. Nature of the series: Antiviral CPE reduction assay. Format: cell-based, herpes simplex virus-1. The note with it: Human alphaherpesvirus 1.
The next series relates to YFV 17D. Put plainly: microbe, parasite or virus in culture. Format: cell-based. The note with it: Yellow fever virus, Huh-7, read-out: EC50 YFV 17D Huh7.
In a further series the test system is Zika mr766. Nature of the series: Antiviral CPE reduction assay. Format: cell-based. As to conditions: Zika virus, Huh-7, Huh7 cells.
A further series concerns Sindbis. Put plainly: Antiviral CPE reduction assay. Format: cell-based. The note with it: Sindbis virus, Huh-7, Huh7 cells.
Series [15] concerns SW620, HeLa and PC3 cancer cell lines. Nature of the series: In vitro antiproliferative activity, all three selected cell lines (MTT). Format: cell-based. The note with it: Homo sapiens, range over three cell lines, 72 h. From the text:
(§4) Human cancer cell lines used in this manuscript, namely Capan-1, HCT-116, NCI-H460, LN-229, HL-60, K-562, Z-138, SW620, PC3 and HeLa, were acquired from the American Type Culture Collection (ATCC, Manassas, VA, USA), while the DND-41 cell line was purchased from the Deutsche Sammlung von Mikroorganismen und Zellkulturen (DSMZ Leibniz-Institut, Germany). Culture media were purchased from Gibco Life Technologies, USA, and supplemented with 10% fetal bovine serum (HyClone, GE Healthcare Life Sciences, Chicago, IL, USA), except for the media for SW620, PC3 and HeLa cells, which were purchased from Sigma.
(§5) Adherent cell lines LN-229, HCT-116, NCI-H460 and Capan-1 cells were seeded at a density between 500 and 1500 cells per well in 384-well tissue culture plates (Greiner). […]. Cells were incubated for 72 h with compounds and were then analyzed using the CellTiter 96® AQueous One Solution Cell Proliferation Assay (MTS) reagent (Promega) according to the manufacturer’s instructions. Absorbance of the samples was measured at 490 nm using a SpectraMax Plus 384 (Molecular Devices), and OD values were used to calculate the 50% inhibitory concentration (IC50). Compounds were tested in two independent experiments. […] After 72 h of incubation, the cell growth rate was evaluated using the MTT assay as described previously. […]

A short description of series [16]: in vitro. The note with it: human.
Series [17] in a line: in vitro. The note with it: human. This is another data set of the same source.
Series [18] can be described thus: in vitro. As to conditions: dog.
Series [19] concerns panel of cancer cell lines (LN-229, Capan-1, HCT-116, NCI-H460, DND-41, HL-60, K-562, Z-138). Nature of the series: In vitro antiproliferative activity, whole panel of Table 1 (MTS). The note with it: Homo sapiens, range over eight cell lines, 72 h, read-out: IC50 values ranging over the panel of cancer cell lines of Table 1. Format: cell-based.
Text: as §4, §5

Series [20] in a line: Cytotoxicity in virus host cell line, MTS assay. The note with it: dog.

The IC50 is the concentration needed to halve the response being measured. By EC50 is commonly meant the concentration at which the effect is half-maximal. The term melting point denotes the temperature of the solid-liquid transition. For the compound `N#Cc1ccc(-c2nc3ncc(Br)cc3[nH]2)cc1` [Compound 8, 4-(6-Bromo-1H-imidazo[4,5-b]pyridin-2-yl)benzonitrile], the melting point is more than 300 °C. In series [1], this compound displayed an IC50 of more than 100 µM. Further, the IC50 in series [2] was more than 100 µM. The compound further gave an IC50 in series [3] of more than 100 µM. In [4], this compound came in with an IC50 of more than 100 µM. The compound further returned an IC50 in [5] of more than 100 µM. The compound further registered an IC50 in series [6] of more than 100 µM. This compound came in with a 50% inhibitory concentration (IC50) in [7] of more than 100 µM. The 50% inhibitory concentration (IC50) in series [8] (Homo sapiens, Z-138, 72 h) is more than 100 µM. In addition, in series [9], the IC50 turned out to be 1.8 ± 0.02 µM. Besides, half-maximal inhibition in series [10] (IC50) required 3.2 ± 0.7 µM. This compound returned a 50% inhibitory concentration (IC50) in [11] of 2 ± 0.2 µM. This compound showed an MIC against E. coli ATCC 25922 of more than 64 µM. In addition, in the series on S. Pneumoniae ATCC 49619, the MIC was more than 64 µM. The compound also displayed an MIC against S. aureus ATCC 29213 of more than 64 µM. Further, the MIC in the series with E. coli Efflux Del was more than 64 µM. This compound also came in with a 50% effective concentration (EC50) with HCoV 229E of more than 100 µM. Moreover, in the series on HCoV OC43, the EC50 is more than 100 µM. Besides, the EC50 in the series with HCoV NL63 was more than 100 µM. The compound further registered a concentration giving a half-maximal response (EC50) in [12] of 72.4 ± 8 µM. The midpoint of the response in [13], the EC50, lay at 35.9 ± 12.4 µM. This compound showed a 50% effective concentration (EC50) in [14] of 56.7 ± 10.2 µM. Further, in the series on RSV A Long, the concentration giving a half-maximal response (EC50) was more than 100 µM. The same compound yielded a concentration for a half-maximal effect (EC50) with HSV-1 KOS of more than 100 µM. Also, the EC50 in the series with YFV 17D is more than 100 µM. In the series with Zika mr766, the EC50 is more than 100 µM. The EC50 in the series on Sindbis was more than 100 µM. The IC50 in series [15] was 1.8 to 3.2 µM. Moreover, the CC50 in the series “in vitro [16]” is more than 100 µM. This compound also had a CC50 in “in vitro [17]” of more than 100 µM. The compound further showed a CC50 in the series “in vitro [18]” of more than 100 µM.
With `Brc1cnc2nc(-c3ccc(C4=NCCN4)cc3)[nH]c2c1.Cl` [Compound 14, 6-Bromo-2-(4-(4,5-dihydro-1H-imidazol-2-yl)phenyl)-1H-imidazo[4,5-b]pyridine Hydrochloride], the melting point is more than 300 °C. The same compound came in with a half-inhibitory concentration (IC50) in series [1] of 13.6 ± 2.8 µM. In series [2], half-maximal inhibition (IC50) was put at 49.7 ± 3.1 µM. In [3], the half-inhibitory concentration (IC50) turned out to be 8 ± 1.8 µM. The IC50 in series [4] came out at 13 ± 7.6 µM. Moreover, the IC50 in [5] is 9.4 ± 0.4 µM. This compound also returned an IC50 in series [6] of 10.8 ± 0.4 µM. Inhibition in series [7] was half-maximal at 9.5 ± 1.3 µM (IC50). For the same compound, in series [8] (72 h), the midpoint of inhibition, the IC50, lay at 8.5 ± 2 µM. This compound also registered an IC50 in [8] (Homo sapiens, Z-138, 72 h) of 8.4 µM. Moreover, the IC50 in [9] is 4.3 ± 2.6 µM. Further, the IC50 in [10] worked out at 1.5 ± 0.5 µM. In addition, the half-maximal inhibitory concentration (IC50) in series [11] is 0.7 ± 0.3 µM. In the series on E. coli ATCC 25922, the MIC was more than 64 µM. Further, in the series with S. Pneumoniae ATCC 49619, the MIC is more than 64 µM. Moreover, in the series on S. aureus ATCC 29213, the MIC was more than 64 µM. For the same compound, the MIC in the series on E. coli Efflux Del turned out to be 32 µM. The IC50 in series [19] was in the range of 8 to 49.7 µM. This compound also came in with a CC50 in “in vitro [18]” of 33.9 ± 0.1 µM.
`CC(N)C12CC3CC(CC(C3)C1)C2` (stereo not drawn) [Rimantadine, rimantadine, reference compound]: the half-maximal effective concentration (EC50) in series [12] is 4.4 ± 4.2 µM; in series [13] it was 0.05 ± 0.05 µM; in series [14] it was more than 100 µM. The CC50 in series [20] was more than 100 µM.

The values above are taken from publication PMC9822021, “Biological Activity of Amidino-Substituted Imidazo [4,5-b]pyridines” (Molecules, 2022).
